Test results: US20120035177A1, “TABLET FORMULATION FOR P38 INHIBITOR AND METHOD” (Bristol-Myers Squibb Company, priority 2009, published 2012)

Assay: Physical stability upon storage
Type: physicochemical
Settings: drug substance; room temperature without need for refrigeration

SMILES: CCCNC(=O)c1cn2c(c1C)C(Nc1cc(C(=O)NC3CC3)ccc1C)=NCN2.Cl [p38 inhibitor]
- physical stability upon storage: good physical stability
